# Experimental data from patent publication US6562873B2, “Compositions containing therapeutically active components having enhanced solubility” (Allergan, Inc., priority 2000, dated 2003).
# Where two headings read alike, the source gives them in different places. Marks after values point to notes of the source that are not given here.
# What was measured:
# [1] = for Solubility: 23° C., 2 days stirring, theoretical concentration based on sample weight, all dissolved
# Procedure: Table 1. It will be understood that concentrations of adrenergic agonists other than 0.5% may be used, so long as they have therapeutic activity. Likewise, the temperature may be varied, for example, solubility curves may be performed at 37° C. (98.6° F.). The formulation vehicle was prepared by first dissolving polyvinyl alcohol (PVA) in water. The PVA was added to approximately ⅓ of the required total amount of purified water with constant stirring. The slurry was stirred for 20-30 minutes and then heated to 80-95° C. with constant stirring. The mixture was removed from the heat source within 1 hour after having reached the temperature of 80-90° C. and stirred for an additional 10 minutes to ensure homogeneity (Part I). The other ingredients of the Ophthalmic Solution, except for Brimonidine tartrate, were dissolved in a separate container with an additional ⅓ of the required total amount of purified water (Part II). The PVA mixture (Part I) was then quantitatively transferred to Part II using several rinse volumes of purified water. The solution was adjusted to final volume with purified water without pH adjustment.
# Brimonidine tartrate was weighed and transferred to a 10 mL test tube containing 5 mL of the formulation vehicle described above. The pH of each sample was then adjusted to a desired value using dilute sodium hydroxide and/or dilute hydrochloric acid. The samples were placed in a rack on a stir plate and stirred at high speed to achieve uniform mixing for 2 days; a partition was placed between the rack and the stir plate to prevent any heat diffusion from the stir plate to the samples.
# At the end of two days of stirring, the pH value of each sample was measured, and then approximately 1 mL of each sample was placed in a micro centrifuge tube (polypropylene) and centrifuged at 4,000 rpm for 10 minutes. The supernatant was filtered through a 1 μm filter unit (Whatman, 13 mm, PTFE). The first 3-4 drops of the filtrate were discarded; the rest of the filtrate was received and diluted quantitatively with HPLC mobile phase. […] A control of […] Brimonidine tartrate was prepared in the formulation vehicle at pH 6.3-6.5 and assayed before (untreated) and after (treated) centrifugation and filtration. This was done to evaluate the potential loss of Brimonidine tartrate in these two steps of the sample preparation. To ensure reproducibility, the study was repeated on consecutive days.
# [2] = for Solubility of Brimonidine tartrate (%): 15 days; for soluble Brimonidine tartrate: FIG. 1
# Procedure: The pH-solubility profiles of Brimonidine tartrate in compositions (solutions) containing SECs and oxy-chloro components were determined. Particularly, the effects of sodium carboxymethylcellulose (CMC), an SEC, on the solubility of Brimonidine tartrate at various pH conditions were determined. The various concentrations of CMC tested with Brimonidine tartrate were 0%, 0.056%, 0.17%, 0.5%, 1.5% (w/v), Table III.
# The samples tested also contained isotonic components, buffer components, and stabilized chlorine dioxide (Purite™), Table III. Sodium carboxymethyl-cellulose, sodium chloride, potassium chloride, calcium chloride dihydrate, and magnesium chloride hexahydrate were USP grade. Boric acid and sodium borate decahydrate were NF grade.
# Each sample (1 through 5) was subjected to a range of pH's from about 7 to about 10. The vials containing the sample solutions were placed on a laboratory rotator and left for equilibration for fifteen days at room temperature (^˜21° C.). The sample solutions were filtered using a 25 mm diameter polysulfone cellulose acetate syringe type filter with 0.45 μm pore size. The filtered solutions were assayed for Brimonidine.
# Conventional HPLC and detection techniques were used to detect and determine the concentrations of soluble Brimonidine tartrate. […] The solubility is plotted against pH for each CMC concentration. The experimental data points were fitted to a modified Henderson-Hasselbalch equation using a nonlinear least squares routine (Deltagraph version 4.0 DeltaPoint, Inc.), FIG. 1.
substance,measurement,setting,value
5-bromo-6-(2-imidozolin-2-ylamino) quinoxaline [Brimonidine tartrate],Concentration of Brimonidine tartrate in control after centrifugation and filtration step,"[1]; Control (treated), formulation vehicle at pH 6.3-6.5, Study 1",0.484^d % w/v
same,Concentration of Brimonidine tartrate in control before centrifugation and filtration step,"[1]; Control (untreated), formulation vehicle at pH 6.3-6.5, Study 1",0.486^c % w/v
same,Solubility,"[1]; Study 1, sample 1, pH 5.55, Ophthalmic Solution vehicle",≦164.4^b % w/v
same,Solubility,"[1]; Study 2, sample 1, pH 5.50, Ophthalmic Solution vehicle",≦200.6^b % w/v
same,Solubility of Brimonidine tartrate (%),"[2]; 0% CMC, pH 6.68, room temperature (~21° C.)",1.4256%
same,Solubility of Brimonidine tartrate (%),"[2]; 0% CMC, pH 7.11, room temperature (~21° C.)",0.2064%
same,Solubility of Brimonidine tartrate (%),"[2]; 0% CMC, pH 7.68, room temperature (~21° C.)",0.0786%
same,Solubility of Brimonidine tartrate (%),"[2]; 0% CMC, pH 8.50, room temperature (~21° C.)",0.0286%
same,Solubility of Brimonidine tartrate (%),"[2]; 0% CMC, pH 10.09, room temperature (~21° C.)",0.0218%
same,Solubility of Brimonidine tartrate (%),"[2]; 0.056% CMC, pH 6.67, room temperature (~21° C.)",0.9302%
same,Solubility of Brimonidine tartrate (%),"[2]; 0.056% CMC, pH 7.11, room temperature (~21° C.)",0.2828%
same,Solubility of Brimonidine tartrate (%),"[2]; 0.056% CMC, pH 7.77, room temperature (~21° C.)",0.0721%
same,Solubility of Brimonidine tartrate (%),"[2]; 0.056% CMC, pH 9.93, room temperature (~21° C.)",0.0234%
same,Solubility of Brimonidine tartrate (%),"[2]; 0.17% CMC, pH 6.68, room temperature (~21° C.)",1.4200%
same,Solubility of Brimonidine tartrate (%),"[2]; 0.17% CMC, pH 6.93, room temperature (~21° C.)",0.7302%
same,Solubility of Brimonidine tartrate (%),"[2]; 0.17% CMC, pH 7.81, room temperature (~21° C.)",0.0735%
same,Solubility of Brimonidine tartrate (%),"[2]; 0.17% CMC, pH 8.55, room temperature (~21° C.)",0.0328%
same,Solubility of Brimonidine tartrate (%),"[2]; 0.17% CMC, pH 10.05, room temperature (~21° C.)",0.0241%
same,Solubility of Brimonidine tartrate (%),"[2]; 0.5% CMC, pH 6.67, room temperature (~21° C.)",1.4464%
same,Solubility of Brimonidine tartrate (%),"[2]; 0.5% CMC, pH 7.10, room temperature (~21° C.)",0.3693%
same,Solubility of Brimonidine tartrate (%),"[2]; 0.5% CMC, pH 7.56, room temperature (~21° C.)",0.1451%
same,Solubility of Brimonidine tartrate (%),"[2]; 0.5% CMC, pH 8.46, room temperature (~21° C.)",0.0313%
same,Solubility of Brimonidine tartrate (%),"[2]; 0.5% CMC, pH 9.94, room temperature (~21° C.)",0.0250%
same,Solubility of Brimonidine tartrate (%),"[2]; 1.5% CMC, pH 7.35, room temperature (~21° C.)",0.1904%
same,Solubility of Brimonidine tartrate (%),"[2]; 1.5% CMC, pH 8.10, room temperature (~21° C.)",0.0498%
same,Solubility of Brimonidine tartrate (%),"[2]; 1.5% CMC, pH 8.67, room temperature (~21° C.)",0.0311%
same,Solubility of Brimonidine tartrate (%),"[2]; 1.5% CMC, pH 10.11, room temperature (~21° C.)",0.0222%
same,effect of CMC concentration on solubility,"[2]; FIG. 1, 0-1.5% CMC",tends to increase with increasing CMC concentrations
same,soluble Brimonidine tartrate,"[2]; pH 7.5, 0% CMC",1000 ppm
same,soluble Brimonidine tartrate,"[2]; pH 7.5, 0.056% CMC",1300 ppm
same,soluble Brimonidine tartrate,"[2]; pH 7.5, 0.17% CMC",1300 ppm
same,soluble Brimonidine tartrate,"[2]; pH 7.5, 0.5% CMC",1600 ppm
same,soluble Brimonidine tartrate,"[2]; pH 7.5, 1.5% CMC",about 1400 ppm
